In experiment [1] the test system is SARS-CoV-2-NLuc. Description: microbe, parasite or virus in culture. The experiment is classed as cell-based, SARS Coronavirus 2.
For experiment [2], the target named is recombinant SARS-CoV-2 Main protease (Mpro) (Severe acute respiratory syndrome coronavirus 2 (2019-nCoV) (SARS-CoV-2), UniProt P0DTD1). In words: Cov Mpro Biochemical IC50 Assay. As to conditions: read-out: MPro IC50.
[3] abbreviates: Severe acute respiratory syndrome coronavirus, 48 h; read-out: MPro EC50.
Setting [4] is: recombinant SARS-CoV-2 Mpro 7.5 nM, fluorogenic peptide substrate 40 μM.
Where [5] appears, read: Severe acute respiratory syndrome coronavirus, 48 h, read-out: MPro EC50.
The mark [6] stands for this setting: recombinant SARS-CoV-2 Mpro, fluorogenic peptide substrate.

As a reminder, the EC50 is the concentration that produces a half-maximal response. For orientation: IC50 means the concentration that inhibits the measured activity by half.

Read-outs that look alike come from different tables or passages of the source.

Take `Cc1noc(C)c1-c1cc2[nH]c(=O)n(-c3cncc4cnn(C)c34)c(=O)c2s1` [Example 805]: in experiment [1] (setting [3]), the EC50 was > 1 µM. Further, the IC50 in experiment [2] (setting [4]) amounted to 0.701 µM.
With `CCn1cc2cncc(-n3c(=O)[nH]c4cc(-c5cc(OC)c(F)cc5Cl)sc4c3=O)c2n1` [Example 734], the EC50 in experiment [1] (setting [5]) is 0.0435 µM. Also, the 50% inhibitory concentration (IC50) in experiment [2] (setting [4]) was 0.00517 µM.
`O=c1[nH]c2cc(-c3c(O)cccc3Cl)sc2c(=O)n1-c1cncc2ccccc12` [Example 8]: the EC50 in experiment [1] (setting [5]) was 0.108 µM. The IC50 in experiment [2] (setting [6]) turned out to be 0.0313 µM.
For `CC(C)Oc1ccc(Cl)c(-c2ccc3c(=O)n(-c4cncc5ccccc45)c(=O)[nH]c3c2)c1` [Example 297] the same measures were 0.223 µM and 0.68 µM.
As to `COc1cc(-c2cc3[nH]c(=O)n(-c4cncc5ccc(C)nc45)c(=O)c3s2)c(Cl)cc1F` (single isomer, unassigned) [Example 1034, 6-(2-chloro-4-fluoro-5-methoxyphenyl)-3-(2-methyl-1,6-naphthyridin-8-yl)thieno[3,2-d]pyrimidine-2,4(1H,3H)-dione], in experiment [1] (read-out: MPro EC50), the EC50 came out at 0.00304 µM. Further, in experiment [2] (setting [4]), the 50% inhibitory concentration (IC50) was determined as 0.00313 µM.
For `O=c1[nH]c2cc(-c3ccccc3Cl)sc2c(=O)n1-c1cncc2c1cnn2CC(F)(F)F` [Example 492], in experiment [1] (setting [5]), the EC50 stood at 4.84 µM. The IC50 in experiment [2] (setting [4]) is > 50 µM.
For `COc1cc(-c2cc3c(s2)c(=O)n(-c2cncc(C)c2C)c(=O)n3CCC#N)c(Cl)cc1F` [Example 932], in that order: 0.00242 µM and 0.00533 µM.
As for `Cc1cc2ncnn2cc1-c1cc2[nH]c(=O)n(-c3cncc4ccccc34)c(=O)c2s1` [Example 15], in experiment [1] (setting [5]), the 50% effective concentration (EC50) was 25.1 µM. The IC50 in experiment [2] (setting [6]) came out at 3.97 µM.
For the compound `O=c1[nH]c2cc(-c3ccccc3Cl)ccc2c(=O)n1-c1cnccc1N1CCOCC1` [Example 128], in experiment [1] (setting [3]), the EC50 turned out to be 1.32 µM. Further, in experiment [2] (setting [6]), the IC50 is 0.51 µM.
Take `O=c1[nH]c2cc(-c3ccccc3-c3ccccc3Cl)ccc2c(=O)n1-c1cncc2ccccc12` [Example 74, 7-(2′-chloro-[1,1′-biphenyl]-2-yl)-3-(isoquinolin-4-yl)quinazoline-2,4(1H,3H)-dione]: in experiment [1] (setting [5]), the EC50 stood at 0.711 µM. For the same compound, in experiment [2] (setting [6]), the IC50 came to 0.47 µM.
On to `Cn1cnc(Cn2c(=O)n(-c3cncc4ccccc34)c(=O)c3sc(-c4ccccc4Cl)cc32)n1` (single isomer, unassigned) [Example 478, 6-(2-chlorophenyl)-3-(4-isoquinolyl)-1-[(1-methyl-1,2,4-triazol-3-yl)methyl]thieno[3,2-d]pyrimidine-2,4-dione], for which the EC50 in experiment [1] (read-out: MPro EC50) was determined as 8.28 µM. In experiment [2] (setting [4]), the IC50 was determined as 4.29 µM.
For the compound `COc1ccc(-c2cc3[nH]c(=O)n(-c4cncc5ccccc45)c(=O)c3s2)c(Cl)c1` [Example 722], in experiment [1] (setting [5]), the EC50 was 0.0688 µM. Also, the IC50 in experiment [2] (setting [4]) came out at 0.034 µM.
Regarding `COc1cc(-c2cc3c(s2)c(=O)n(-c2cncc4ccccc24)c(=O)n3CC2(C#N)CC2)c(Cl)cc1F` (single isomer, unassigned) [Example 636, 1-[[6-(2-chloro-4-fluoro-5-methoxy-phenyl)-3-(4-isoquinolyl)-2,4-dioxo-thieno[3,2-d]pyrimidin-1-yl]methyl]cyclopropanecarbonitrile], the EC50 in experiment [1] (read-out: MPro EC50) stood at 0.00554 µM. For the same compound, the half-inhibitory concentration (IC50) in experiment [2] (setting [4]) was 0.0116 µM.
In the case of `N#CCCn1c(=O)n(-c2cncc(Cl)c2)c(=O)c2sc(-c3ccccc3C#N)cc21` [Example 863], the EC50 in experiment [1] (setting [3]) amounted to 0.0376 µM. The IC50 in experiment [2] (setting [4]) was 0.0133 µM.
In the case of `Cc1nnc2n1CCN(c1ccc3cncc(-n4c(=O)[nH]c5cc(-c6ccccc6Cl)sc5c4=O)c3c1)C2` [Example 396], the EC50 in experiment [1] (setting [5]) came to 3.01 µM. For the same compound, the IC50 in experiment [2] (setting [4]) was 0.0149 µM.
Consider `N#CCCn1c(=O)n(-c2cncc3ccccc23)c(=O)c2sc(-c3ccccc3Cl)cc21` [Example 818, 3-(6-(2-chlorophenyl)-3-(isoquinolin-4-yl)-2,4-dioxo-3,4-dihydrothieno[3,2-d]pyrimidin-1(2H)-yl)propanenitrile], for which, in experiment [1] (setting [5]), the EC50 turned out to be 0.00621 µM. Also, the IC50 in experiment [2] (setting [4]) came to 0.00761 µM.
Take `O=c1[nH]c2cc(-c3c(Cl)cccc3Cl)sc2c(=O)n1-c1cncc2ccccc12` [Example 110, 6-(2,6-dichlorophenyl)-3-(isoquinolin-4-yl)thieno[3,2-d]pyrimidine-2,4(1H,3H)-dione]: the EC50 in experiment [1] (setting [3]) stood at 0.275 µM. For the same compound, the IC50 in experiment [2] (setting [6]) worked out at 0.372 µM.
For the compound `COc1cc(-c2cc3c(s2)c(=O)n(-c2cncc4cn[nH]c24)c(=O)n3CCC#N)c(Cl)cc1F` [Example 1047], in experiment [1] (setting [5]), the 50% effective concentration (EC50) was found to be 0.0124 µM. Further, in experiment [2] (setting [4]), the half-maximal inhibitory concentration (IC50) is 0.00553 µM.
For `Cc1nn(C)cc1-c1cccc(Cl)c1-c1ccc2c(=O)n(-c3cncc4ccccc34)c(=O)[nH]c2c1` [Example 148], the EC50 in experiment [1] (setting [5]) stood at 0.0141 µM. For the same compound, the IC50 in experiment [2] (setting [6]) was determined as 0.0104 µM.
For `COc1cccc(Cl)c1-c1cc2[nH]c(=O)n(-c3cncc4ccccc34)c(=O)c2s1` [Example 19], in that order: 0.0596 µM and 0.0295 µM.
Consider `COc1cc(-c2cc3[nH]c(=O)n(-c4cncc5c4c(C)nn5C)c(=O)c3s2)c(Cl)cc1F` [Example 752], for which the EC50 in experiment [1] (setting [5]) came to 0.00841 µM. Also, in experiment [2] (setting [4]), the IC50 was 0.00696 µM.
Regarding `O=c1[nH]c2cc(-c3cc(Cl)ccc3Cl)ccc2c(=O)n1-c1cncc2ccccc12` [Example 60], in experiment [1] (setting [5]), the EC50 was determined as 0.227 µM. In addition, in experiment [2] (setting [6]), the IC50 amounted to 0.192 µM.
As for `N#CCCn1c(=O)n(-c2cccnc2)c(=O)c2sc(-c3cc(F)c(F)cc3Cl)cc21` [Example 803], the EC50 in experiment [1] (setting [3]) amounted to 0.0915 µM. In addition, the IC50 in experiment [2] (setting [4]) came to 0.0259 µM.
In the case of `COc1ccc(Cl)c(-c2cc3[nH]c(=O)n(-c4cncc5cnn(C)c45)c(=O)c3s2)c1` [Example 498], the EC50 in experiment [1] (setting [5]) is < 0.00596 µM. Besides, the IC50 in experiment [2] (setting [4]) was < 0.00254 µM.
For the compound `O=c1[nH]c2cc(-c3c(Cl)cccc3-c3ccn4ncnc4c3)ccc2c(=O)n1-c1cncc2ccccc12` [Example 142, 7-[2-chloro-6-([1,2,4]triazolo[1,5-a]pyridin-7-yl)phenyl]-3-(4-isoquinolyl)-1H-quinazoline-2,4-dione], the EC50 in experiment [1] (setting [5]) turned out to be 0.0315 µM. Besides, the IC50 in experiment [2] (setting [6]) came to 0.00862 µM.
With `Cc1c(-c2cccc(Cl)c2-c2ccc3c(=O)n(-c4cncc5ccccc45)c(=O)[nH]c3c2)cnn1C1CCNCC1` [Example 473], the EC50 in experiment [1] (setting [5]) turned out to be 1.81 µM. For the same compound, in experiment [2] (setting [4]), the IC50 turned out to be 0.0175 µM.
Turning to `O=c1[nH]c2cc(-c3ccsc3-c3ccsc3Cl)ccc2c(=O)n1-c1cncc2ccccc12` [Example 85], the EC50 in experiment [1] (setting [5]) came out at 0.751 µM. The IC50 in experiment [2] (setting [6]) turned out to be 1.49 µM.
For `COc1cc(-c2cc3c(s2)c(=O)n(-c2cncc4cccnc24)c(=O)n3CCC#N)c(Cl)cc1F` (single isomer, unassigned) [Example 1036, 3-(6-(2-chloro-4-fluoro-5-methoxyphenyl)-3-(1,6-naphthyridin-8-yl)-2,4-dioxo-3,4-dihydrothieno[3,2-d]pyrimidin-1(2H)-yl)propanenitrile], in experiment [1] (read-out: MPro EC50), the 50% effective concentration (EC50) is 0.00066 µM. For the same compound, the IC50 in experiment [2] (setting [4]) amounted to 0.00142 µM.
Take `COc1ccc(Cl)c(-c2cc3[nH]c(=O)n(-c4cncc5c4OCCC5)c(=O)c3s2)c1` [Example 586]: the concentration giving a half-maximal response (EC50) in experiment [1] (setting [5]) amounted to 0.0543 µM. Moreover, the IC50 in experiment [2] (setting [4]) came to 0.0262 µM.
Turning to `N#Cc1cncc(-c2cccc(Cl)c2-c2cc3[nH]c(=O)n(-c4cncc5ccccc45)c(=O)c3s2)c1` [Example 673], in experiment [1] (setting [5]), the concentration for a half-maximal effect (EC50) was 0.00371 µM. For the same compound, in experiment [2] (setting [4]), the IC50 was found to be 0.00408 µM.
As for `O=c1[nH]c2cc(-c3c(Cl)cccc3-c3cc(C(F)(F)F)c4ncnn4c3)ccc2c(=O)n1-c1cncc2ccccc12` [Example 145], the EC50 in experiment [1] (setting [3]) came out at 0.043 µM. Besides, the IC50 in experiment [2] (setting [6]) came out at 0.0239 µM.

The record behind these values is patent US20240116946A1 (Gilead Sciences, Inc., priority 2022, published 2024).
